Laboratory results: PubChem BioAssay AID504765 (Sanford-Burnham Center for Chemical Genomics, 2011)
Where “and” joins values, the source holds several entries; their conditions need not be identical. Equal entries are not always repeated. Calls of active or inactive are those of the source. The rule behind the calls is not given here.

target: glucose-6-phosphate dehydrogenase-6-phosphogluconolactonase (Plasmodium falciparum 3D7); test: concentration-dependent PfGluPho enzyme inhibition – biochemical, fluorescence intensity, dose response (AID 504765); details: Recombinant PfG6PD enzyme, fluorescence intensity (NADPH)

SMILES | IC50
CC1=CC(C)(C)Nc2ccc(OC(=O)CN3C(=O)CCC3=O)cc21 | 12 µM
Cc1cc(=O)[nH]c(N/N=C/c2c(C)nn(-c3ccccc3)c2Cl)n1 | 8.43 µM
Cc1[nH]c2ccccc2c1/C=N/Nc1nncn1N | 5.61 µM
COc1ccc2ccccc2c1C1CC(=O)N2CN(C3CCCCC3)CSC2=C1C#N (stereo unspecified) | 14.7 µM
CC(=O)Nc1ccc(S(=O)(=O)NNc2cccc(C)c2)cc1 | inactive
CCOc1ccccc1NS(=O)(=O)c1c(C)noc1C | 9.95 µM
O=c1c2ccc(F)cc2sn1-c1ccccc1 | 1.98 µM
COc1ccc(CN(C)S(=O)(=O)c2nnc(NC(=O)c3cccc(C)c3)s2)cc1OC | 6.89 µM
O=C1OC(c2ccc3ccccc3c2O)(c2ccc3ccccc3c2O)c2ccccc21 | 14.5 µM
Cc1ccc(SC2=C(Sc3ccc(C)cc3)C(=O)c3ccccc3C2=O)cc1 | 11 µM
COc1ccccc1NS(=O)(=O)c1cc(NC(=O)c2ccc(Cl)nc2)ccc1N1CCCC1 | inactive
CCOC(=O)Cc1csc(-n2sc3ccccc3c2=O)n1 | 2.82 µM
Cc1ccc2nc(-c3ccc(NC(=S)NC4CC(C)(C)NC(C)(C)C4)cc3)sc2c1 | 2.39 µM
CCc1cc(-c2n[nH]c(C)c2-c2ccccc2Cl)c(O)cc1OC | 7.52 µM
CCn1c2ccccc2c2nc3cc(S(=O)(=O)N4CCOCC4)ccc3nc21 | inactive
COC1=C(N)C(=O)c2nc(C)ccc2C1=O | 6.3 µM
COc1ccc(C(=O)Nc2sc3c(c2C(=O)O)CC(C)(C)OC3)cc1 | 11 µM
Cc1ccc(N2CC(C(=O)OCC(=O)c3ccc([N+](=O)[O-])cc3)CC2=O)cc1 (stereo unspecified) | 8.7 µM
CCn1c(=O)n(CC)c2cc(N3CCCC3)c(NC(=O)c3cccc(C)c3)cc21 | inactive
Cc1ccc(S(=O)(=O)N(C)C)cc1NC(=O)CSc1nc2ncc(Cl)cc2[nH]1 | 12.1 µM
O=C(NC1=CC(=O)c2ccccc2C1=O)c1ccccc1 | 2.53 µM
Cc1ccc(-c2csc(NC(=O)c3ccccc3F)c2C(=O)O)cc1 | 8.06 µM
CCCCOc1ccc(Cc2n[nH]c(=S)n2N)cc1 | inactive
COc1ccc(S(=O)(=O)/N=C2\C=C(Nc3ccc(O)cc3)C(=O)c3ccccc32)cc1 | inactive

SMILES | IC50
Cc1ccc(C)c(-n2sc3ccc(F)cc3c2=O)c1 | 1.24 µM
CN(CCO)c1cc(Sc2nc3ccccc3s2)c2nonc2c1[N+](=O)[O-] | 11.1 µM
CN1CCN(C(=S)c2ccc(Br)cc2)CC1 | inactive
O=C(Nc1ccc(N2CCOCC2)c(Cl)c1)c1ccc(Cl)cc1 | 4.87 µM
CCN1CCN(c2nc(C)nc3c2sc(=S)n3C)CC1 | 15.1 µM
O=C(Nc1nnc(C2CC2)s1)c1ccc(Cl)nc1 | 4.18 µM
O=C1Nc2cc(C(=O)NCCCN3CCCC3)ccc2S/C1=C\c1ccccc1 | 9.3 µM
O=C(CNC(=O)c1cccs1)NCC(=O)OCC(=O)c1ccc([N+](=O)[O-])cc1 | 16.7 µM
CN1CC[C@@]2(C)c3cc(O)ccc3N(C)[C@@H]12 | 1.52 µM
Nc1ccc2c3c(cccc13)-c1ccccc1-2 | inactive
C=CCSc1nnc(NC(=O)c2ccc(Cl)nc2)s1 | 4.05 µM
CS(=O)(=O)c1ccc(N)c(SSc2cc(S(C)(=O)=O)ccc2N)c1 | 4.07 µM
Cc1c(N=C2C=C(Br)C(=O)C(Br)=C2)c(=O)n(-c2ccccc2)n1C | 7.32 µM
Cc1nc(COC(=O)c2cc(O)c3ccccc3c2O)cs1 | 3.52 µM
CN(C)c1cccc2c1c(NC(=O)c1ccc(F)cc1)nn2C | 19.2 µM
O=C(Cn1sc2ccccc2c1=O)NC12CC3CC(CC(C3)C1)C2 | 1.79 µM
COc1cc(N2C(=O)C=CC2=O)ccc1N1C(=O)C=CC1=O | 4.43 µM
COc1cc(-c2cc(OC)c(O)c(OC)c2)cc(OC)c1O | 8.29 µM
Cn1c(=O)[nH]c(=O)c2c1[nH]c(=S)n2CCCc1ccccc1 | inactive
C=CCc1c(C)[nH]c(=S)c(C#N)c1C | 15.3 µM
COc1ccc(/C=C/c2nc3ccccc3n2C)cc1 | 8.04 µM
O=C(O)c1cc(N2C(=O)C=CC2=O)cc(N2C(=O)C=CC2=O)c1 | 4.34 µM
COc1cc(NC(C)CCc2ccccc2)cc(OC)c1OC (stereo unspecified) | 2.02 µM
COC(=O)c1ccccc1NC1=C/C(=N\S(=O)(=O)c2cccs2)c2ccccc2C1=O | 1.26 µM and 6.47 µM

SMILES | IC50
COc1cc(N)c2ncccc2c1Cl | 6.92 µM
CCNc1nc(NC(C)C)nc(NS(=O)(=O)c2ccc(Cl)cc2)n1 | 6.54 µM
CCc1c(C(=O)Nc2ccccc2)c(C)[nH]c(=S)c1C#N | inactive
COC(=O)CCC(=O)OC1(C)C(=O)C2=CN(c3ccccc3)C(c3ccc(OC)cc3)=CC2=C(Br)C1=O (stereo unspecified) | 3.16 µM
OCCN1CCN(C(=S)c2ccc(-c3ccccc3)cc2)CC1 | 19.6 µM
CC(NC1=CC(=O)c2cccnc2C1=O)C(O)c1ccccc1 (stereo unspecified) | 4.03 µM
COC(=O)[C@H](CCSC)NC(=O)c1cc2c(cn1)[nH]c1ccccc12 | inactive
Cc1ccc(-c2nc(N)s[n+]2-c2ccccc2)cc1 | 9.13 µM
COc1ccc(-n2c(=S)[nH]c3c(sc(=S)n3-c3ccccc3)c2=O)c(OC)c1 | inactive
Cc1ccnc(-n2sc3ccccc3c2=O)n1 | 11.7 µM
COc1cccc(CNc2ccc3[nH]c(=O)[nH]c3c2)c1OCc1ccccc1Cl | inactive
COC(=O)CCC(=O)Nc1sc(Cc2ccccc2)c(C)c1C(N)=O | inactive
CCN(CC)C(=S)SSC(=S)N(CC)CC | 10.1 µM
COc1cc(/C=C2\CC/C(=C\c3cc(OC)c(O)c(OC)c3)C2=O)cc(OC)c1O | 17.1 µM
Cc1ccsc1/C=N\NC(=O)CC(=O)NCc1ccccc1 | 6.41 µM
Cc1cc(C)c2c(=O)n(CC(=O)Nc3cccc(F)c3)sc2n1 | 1.89 µM
Cc1ccc(/C=C2\C(=O)NC(=S)N(c3ccccc3F)C2=O)s1 | inactive
CC(CNc1ccccc1O)C(=O)O (stereo unspecified) | 6.16 µM
[O-][N+](=Cc1ccccc1)c1ccc(Cl)cc1 | 3.34 µM
COc1ccc(C(=O)c2c(C(F)(F)F)oc3c2C(=O)c2ccccc2C3=O)cc1OC | inactive
COc1cc(CNc2ccc3[nH]c(=O)[nH]c3c2)ccc1OCc1ccccc1 | inactive
O=S(=O)(Nc1ccccc1F)c1cccc(NC(=S)NCCN2CCOCC2)c1 | 7.87 µM
Cc1ccc(S(=O)c2ccc([N+](=O)[O-])c3nonc23)cc1 (stereo unspecified) | 8.19 µM
CCOc1ccc(S(=O)(=O)Nc2cc(SCC(=O)O)c(O)c3ccccc23)cc1 | 2.47 µM

SMILES | IC50
Cc1ccc(-c2c(C(=O)N/N=C/c3ccc(C)o3)nnn2-c2nonc2N)cc1 | 1.43 µM
COc1ccc(Cl)cc1NC(=O)c1cccc([N+](=O)[O-])c1O | 8.87 µM
CCOC(=O)c1cnc2ccc(C)cc2c1Sc1ccccc1C(=O)OC | 11.1 µM
CCOc1ccccc1C=NNC(=O)CCCCC(=O)NN=Cc1ccccc1OCC | 7.77 µM
Cc1cc(NC(=O)c2oc3ccccc3c2C)ccc1-n1cnnn1 | 4.54 µM
CCN1/C(=C/C=C/C=C/C=C/c2sc3ccccc3[n+]2CC)Sc2ccccc21 | 7.54 µM
Cc1cc(C)c2sc(NC(=O)C3=COCCO3)nc2c1 | 11 µM
O=c1c2ccccc2sn1-c1ccc(Cl)cc1Cl | 3.98 µM
Cc1ccc(NNS(=O)(=O)c2ccc(C)cc2)cc1 | 12.6 µM
CC(Cc1ccc(O)c(O)c1)C(C)Cc1ccc(O)c(O)c1 (stereo unspecified) | inactive
Cc1ccc(Cl)cc1NC1=C/C(=N\S(=O)(=O)c2cccs2)c2ccccc2C1=O | inactive
COc1cc(/C=C2\SC(c3ccc(C)cc3)=NC2=O)ccc1O | 8.7 µM
C(=N\Nc1nc2ccccc2[nH]1)/c1ccccn1 | 5.24 µM
C[C@H](NC(N)=O)C(=O)Nc1ccc(N2CCOCC2)c(S(=O)(=O)Nc2ccc(Cl)cc2)c1 | inactive
C=CCOc1c(Cl)cc(CNc2ccc(N(C)C)cc2)cc1OC | 9.87 µM
N#CC(C#N)=C1C=CC=CN1/C(=C\c1ccccc1Cl)C(=O)c1ccccc1 | 8.31 µM
O=c1c2ccccc2sn1-c1cccc(Cl)c1 | 4.18 µM
N#Cc1ccc2sn(-c3ccccc3)c(=O)c2c1 | 3.47 µM
O=[N+]([O-])c1ccc2c(c1)-c1ccccc1C2O (stereo unspecified) | 2.46 µM
Cc1cccc(C(=O)Nc2sc3c(c2C(=O)O)CCCC3)c1 | 8.55 µM
O=C(COc1cccc2ccccc12)Nc1ccc(Cl)cc1C(=O)O | 13.5 µM
C/C(Cn1nnc([N+](=O)[O-])n1)=N\NC(=O)c1ccc(O)cc1 | 14.6 µM
COc1cc(NCc2ccccc2O)c2ncccc2c1 | inactive
Cc1ccccc1-n1c(-c2ccc3ccccc3n2)n[nH]c1=S | 14.4 µM

SMILES | IC50
CCOC(=O)c1c2ccc(OCC(=O)NN)cc2n2ccccc12 | 15.3 µM
O=C(CCc1ccc(O)c(O)c1)N/N=C/c1cc2c(cc1[N+](=O)[O-])OCO2 | 14 µM
CCc1ccccc1N1CSC2=C(C#N)C(c3ccccc3F)CC(=O)N2C1 (stereo unspecified) | 9.2 µM
COC(=O)CCC(=O)OC1(C)C(=O)C2=CN(C3CC3)C(c3ccc(OC)cc3)=CC2=C(Br)C1=O (stereo unspecified) | 2.46 µM
Nc1c(C(=O)Nc2ccc(F)cc2)sc(=S)n1-c1ccccc1F | 8.31 µM
O=c1ccsn1Cc1ccccc1 | 2.29 µM
Cc1ccc(NC2=C(NC(=O)c3ccccc3)C(=O)c3ccccc3C2=O)cc1Cl | 10.2 µM
COc1ccccc1N1CSC2=C(C#N)C(c3ccc(SC)cc3)CC(=O)N2C1 (stereo unspecified) | 10.6 µM
CCN1CCCC1CNC(=O)c1ccc2c(c1)NC(=O)/C(=C\c1ccccc1Cl)S2 (stereo unspecified) | 3.08 µM
Cc1cccc(OCC(=O)NCC(=O)N/N=C/c2ccccc2)c1 | 9.37 µM
Cc1cc(O)c(C(C)C)cc1N=Cc1ccc(N(C)C)cc1 | 4.4 µM
COc1ccc2c(c1)c(=Cc1ccc(N(C)C)cc1)c1cc(-c3ccccc3)[n+](C)n12 | 17.2 µM
COc1ccc2nc3cc(Cl)ccc3c(Nc3ccc(O)c(CN4CCN(C)CC4)c3)c2c1 | inactive
Cc1nnc(N/N=C/c2ccc(-c3ccccc3F)o2)n1N | 16.9 µM
CN=c1nc(-c2ccccc2)n(-c2ccccc2)s1 | 4.82 µM
CN1CCN(C(=O)c2sc(=S)n(-c3ccccc3)c2N)CC1 | 7.25 µM
O=C(CNc1ccc2c(c1)OCO2)N/N=C\c1cn(Cc2ccccc2)c2ccccc12 | inactive
CC(=O)Nc1ccc2c(=O)n(-c3ccccc3)sc2c1 | 8.52 µM
Cc1no[n+]([O-])c1COc1cccc(/C=N/Nc2nncn2N)c1 | 6.7 µM
c1cc2c(cc1NC1CCCCCC1)OCO2 | 19.2 µM
